Earlier results in patent publication US7696242B2, “Hepatitis C inhibitor peptide analogs” (Boehringer Ingelheim International GmbH, priority 2004, dated 2010).

Test system: hepatitis C virus
Conditions: two day clinical trial, patients infected with the hepatitis C virus

COc1ccc2c(O[C@@H]3C[C@H]4C(=O)N[C@]5(C(=O)O)C[C@H]5/C=C\CCCCC[C@H](NC(=O)OC5CCCC5)C(=O)N4C3)cc(-c3csc(NC(C)C)n3)nc2c1 [BILN 2061]
reduction of viral loads in patients: effective in rapidly reducing viral loads
